We go through one compound from patent US7615231B2, “Methods for enhancing the morphology, tone, texture and/or appearance of skin or hair using a meadowlactone” (Fan Tech, Ltd., priority 2005, dated 2009).

Series [1] in a line: Analytical results on purified Meadowlactone (stability). Format: physicochemical. The text has this: The purified Meadowlactone was identified and subsequently quantified by infrared spectroscopy and HPLC coupled with an evaporative light-scattering detector.
A short description of series [2]: Solubility of the Meadowlactone as a function of pH in aqueous systems. It counts as physicochemical. The method, then:
Solubility of the Meadowlactone as a function of pH was determined in aqueous systems.
In these experiments, 2 weight percent of Meadowlactone was mixed with water at room temperature. The pH of this mixture was varied, starting at an acidic pH and terminating at an alkaline pH. The clarity of the mixture was observed, and the mixture was photographed, at different pH levels (varying by one pH unit at a time).

The next series deals with skin. The series can be described thus: Initial use trials of skin creams containing the Meadowlactone. Format: in vivo.

SMILES strings stand for the structures.

Consider `CCCCCCCCCCCCCCCC1CCCC(=O)O1` (stereo not shown) [Meadowlactone, Meadowfoam Delta Lactone], for which the stability result in series [1] is recorded as “extended stability”. Besides, the “oil / water solubility of the isomeric structures” value in series [2] (2 weight percent in water at room temperature, pH varied from acidic to alkaline, clarity observed) is recorded as “oil soluble”. The “forms present at the pH reported for human skin” value in series [2] (pH from about 4.5 to about 5.5) is “both the Meadowlactone and the 5-hydroxy fatty acid exist together in equilibrium”. Moreover, in the series on skin, the skin moisturization entry was “very effective”.
